These results are taken from US8003604B2, “Hepatitis C virus inhibitors” (priority 2006, dated 2011).

In general, EC50 refers to the concentration at which the effect is half-maximal. One may read the IC50 as the concentration at which inhibition is half-maximal.

Assay [1] has as its system HCV replicon in HUH-7 cells. The assay is described as follows: HCV replicon FRET assay (confirmed in replicon luciferase reporter assay). The class given is cell-based. The following applies: Hepatitis C virus, 96 h; HUH-7 cells constitutively expressing HCV 1b replicon, 4 days incubation. An excerpt: An HCV replicon whole cell system was established as described by Lohmann V, Korner F, Koch J, Herian U, Theilmann L, Bartenschlager R., Science 285(5424):110-3 (1999). This system enabled us to evaluate the effects of our HCV Protease compounds on HCV RNA replication. Briefly, using the HCV strain 1b sequence described in the Lohmann paper (Accession number: AJ238799), an HCV cDNA was synthesized by Operon Technologies, Inc. (Alameda, Calif.), and the full-length replicon was then assembled in plasmid pGem9zf(+) (Promega, Madison, Wis.) using standard molecular biology techniques. […]
The HCV replicon FRET assay was developed to monitor the inhibitory effects of compounds described in the disclosure on HCV viral replication. […] After 4 days, cells were first assessed for cytotoxicity using alamar Blue (Trek Diagnotstic Systems) for a CC50 reading. The toxicity of compound (CC50) was determined by adding 1/10th volume of alamar Blue to the media incubating the cells. After 4 h, the fluorescence signal from each well was read, with an excitation wavelength at 530 nm and an emission wavelength of 580 nm, using the Cytofluor Series 4000 (Perspective Biosystems). […]
Background: A replicon is a self-replicating genome or part of one, used to study replication in cells.

Assay [2] concerns the target T1, HCV NS3/4A protease complex (Hepatitis C virus genotype 1a, UniProt P27958, C1454S/C1711G).
T1 construct: DNA encoding the recombinant HCV NS3/4A protease complex (amino acids 1027 to 1711) for these strains were manipulated; inferred from pET21b vector and Ni-NTA purification; made in house; host or cells: Escherichia coli BL21 (DE3), pET21b vector
The assay is described as follows: FRET peptide assay to monitor HCV NS3/4A proteolytic activity. Format: biochemical. The source says:
HCV NS3 protease complexes, derived from the BMS strain, H77 strain or J4L6S strain, were generated, as described below. These purified recombinant proteins were generated for use in a homogeneous assay (see below) to provide an indication of how effective compounds of the present disclosure would be in inhibiting HCV NS3 proteolytic activity.
Serum from an HCV-infected patient was obtained from Dr. T. Wright, San Francisco Hospital. An engineered full-length cDNA (compliment deoxyribonucleic acid) template of the HCV genome (BMS strain) was constructed from DNA fragments obtained by reverse transcription-PCR (RT-PCR) of serum RNA (ribonucleic acid) and using primers selected on the basis of homology between other genotype 1a strains. From the determination of the entire genome sequence, a genotype 1a was assigned to the HCV isolate according to the classification of Simmonds et al. (See P Simmonds, K A Rose, S Graham, S W Chan, F McOmish, B C Dow, E A Follett, P L Yap and H Marsden, J. Clin. Microbiol., 31(6), 1493-1503 (1993)). […]

T1 sequence (P27958 1027-1711 C1454S/C1711G, one chain of several): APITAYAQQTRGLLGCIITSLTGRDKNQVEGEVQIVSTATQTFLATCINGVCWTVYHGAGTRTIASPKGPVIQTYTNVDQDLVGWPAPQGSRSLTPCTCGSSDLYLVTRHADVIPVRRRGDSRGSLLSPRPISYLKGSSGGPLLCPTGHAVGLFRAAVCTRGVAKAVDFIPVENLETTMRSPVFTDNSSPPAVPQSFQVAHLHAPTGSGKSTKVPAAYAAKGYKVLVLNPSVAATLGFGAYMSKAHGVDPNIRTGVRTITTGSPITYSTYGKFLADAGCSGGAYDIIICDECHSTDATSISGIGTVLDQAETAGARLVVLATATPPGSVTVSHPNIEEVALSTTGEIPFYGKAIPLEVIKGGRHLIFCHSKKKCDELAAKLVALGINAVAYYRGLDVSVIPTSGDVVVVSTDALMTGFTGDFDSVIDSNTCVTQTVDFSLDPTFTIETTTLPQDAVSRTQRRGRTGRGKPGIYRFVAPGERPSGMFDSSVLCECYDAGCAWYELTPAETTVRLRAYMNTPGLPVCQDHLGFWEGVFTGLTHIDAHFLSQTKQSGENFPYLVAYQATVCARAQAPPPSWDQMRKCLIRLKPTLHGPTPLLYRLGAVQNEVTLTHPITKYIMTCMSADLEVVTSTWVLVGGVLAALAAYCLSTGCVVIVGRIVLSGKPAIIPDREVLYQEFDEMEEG

`CC(C)(C)OC(=O)N[C@H]1CCCCC/C=C\C2C[C@@]2(C(=O)NS(=O)(=O)C2CC2)NC(=O)[C@@H]2C[C@@H](c3ccccc3)CN2C1=O` (stereo partly shown) [Compound 1]: the EC50 in assay [1] was 639 nM. The IC50 in assay [2] was 18 nM.
In turn, `CC(C)(C)OC(=O)N[C@H]1CCCCC/C=C\[C@@H]2C[C@@]2(C(=O)NS(=O)(=O)C2CC2)NC[C@@H]2C[C@@](O)(c3ccccc3)CN2C1=O` [Compound 2] came in with an EC50 in assay [1] of 389 nM. Besides, in assay [2], the IC50 stood at 9 nM.
